“And” between values parts separate entries of the source, which are not always exact repeats. Equal entries are not always repeated. Where two headings read alike, the source gives them in different places.
Target: T1, CRTH2 receptor (hCRTH2) (Homo sapiens, UniProt Q9Y5Y4)
T1 construct: expressed in transfected cells; host or cells: HEK cells (HEK-hCRTH2 cell line), membranes
T1 sequence (Q9Y5Y4 1-395): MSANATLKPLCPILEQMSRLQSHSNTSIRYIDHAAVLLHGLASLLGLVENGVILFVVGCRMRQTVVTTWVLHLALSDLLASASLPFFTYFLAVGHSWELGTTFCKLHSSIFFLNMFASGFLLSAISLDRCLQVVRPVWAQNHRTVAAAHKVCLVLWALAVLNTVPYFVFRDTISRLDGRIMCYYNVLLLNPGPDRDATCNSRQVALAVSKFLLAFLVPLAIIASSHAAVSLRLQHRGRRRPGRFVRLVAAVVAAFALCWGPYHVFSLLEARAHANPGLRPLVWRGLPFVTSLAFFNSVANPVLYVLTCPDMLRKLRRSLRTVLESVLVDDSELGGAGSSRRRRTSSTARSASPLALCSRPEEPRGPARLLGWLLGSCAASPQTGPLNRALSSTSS
Assay: Radioligand binding assay ([3H]PGD2 competition, membranes of HEK-hCRTH2 cell line)
Conditions: 3.0 nM [3H]PGD2, HEK-hCRTH2 membranes, 60 min, room temperature
Protocol: Competing ligands were diluted in dimethylsulfoxide (Me2SO) that was kept constant at 1% (v/v) of the final incubation volume. The reaction was initiated by the addition of 8-20 μg of membrane protein prepared from a HEK-hCRTH2 cell line. Total and non-specific binding were determined in the absence and the presence of […] PGD2, respectively. […] The reaction was routinely conducted for 60 min at room temperature and terminated by rapid filtration through prewetted (0.3% polyethyleneimine) 96-well printed filtermate (Wallac) using a Tomtec harvester. After washing with cold buffer, the filter was dried for 2 minutes in microwave, and Meltilex Scintillator sheet (Wallac) was melted on for 2 min.

SMILES | Ki (read-out: Ki) | Ki (Ki) [nM]
O=C(O)CCCCc1nc2cc(-c3cc(C(O)c4ccc5ccccc5c4)on3)ccc2c(=O)n1-c1ccc(F)cc1 (stereo not shown) [Example 25i] | ≤ 10 nM | –
CC1(C(=O)Nc2cc(Cl)c(Cl)cc2O)CC(c2ccc3c(=O)n(-c4ccc(F)cc4)c(CCCCC(=O)O)nc3c2)=NO1 (stereo not shown) [Example 165] | 10 to 50 nM | –
CC1(c2nc3ccccn3c2Cl)CC(c2ccc3c(=O)n(-c4ccc(F)cc4)c(CCCCC(=O)O)nc3c2)=NO1 (stereo not shown) [Example 162] | ≤ 10 nM | –
CC1(c2cc3ccccn3n2)CC(c2ccc3c(=O)n(-c4ccc(F)cc4)c(CCCCC(=O)O)nc3c2)=NO1 (stereo not shown) [Example 193] | ≤ 10 nM | –
COCC1(c2ccccc2)CC(c2ccc3c(=O)n(-c4ccc(F)cc4)c(CCCCC(=O)O)nc3c2)=NO1 (stereo not shown) [Example 15V] | 10 to 50 nM | –
CC[C@@H](c1ccc(F)cc1)c1cc(-c2ccc3c(=O)n(-c4ccc(F)cc4)c(CCCCC(=O)O)nc3c2)no1 [Example 43D] | ≤ 10 nM | –
CC1(c2nc3ccc(Cl)cc3[nH]2)CC(c2ccc3c(=O)n(-c4ccc(F)cc4)c(CCCCC(=O)O)nc3c2)=NO1 (stereo not shown) [Example 175] | ≤ 10 nM | –
O=C(O)CCCCc1nc2cc(-c3cc(-c4nc5ccccc5o4)on3)ccc2c(=O)n1-c1ccc(F)cc1 [Example 29] | ≤ 10 nM | –
O=C(O)CCCCc1nc2cc(-c3cc(Cc4ccc(F)cc4)on3)ccc2c(=O)n1-c1ccccc1 [Example 25F] | ≤ 10 nM | –
C[C@]1(c2nc3cc(F)c(F)cc3[nH]2)CC(c2ccc3c(=O)n(-c4ccc(Cl)cc4)c(CCCCC(=O)O)nc3c2)=NO1 [Example 225] | 10 to 50 nM | –
Cn1cc(-c2ccc3c(=O)n(-c4ccc(F)cc4)c(CCCCC(=O)O)nc3c2)nn1 [Example 9, 5-(3-(4-Fluorophenyl)-7-(1-methyl-1H-1,2,3-triazol-4-yl)-4-oxo-3,4-dihydroquinazolin-2-yl)pentanoic acid] | ≤ 10 nM | –
C[C@]1(c2cccc(Br)c2)CC(c2ccc3c(=O)n(-c4ccc(F)cc4)c(CCCCC(=O)O)nc3c2)=NO1 [Example 236] | 10 to 50 nM | –
C[C@@]1(C(=O)NCc2ccccc2)CC(c2ccc3c(=O)n(-c4ccc(F)cc4)c(CCCCC(=O)O)nc3c2)=NO1 [Example 234] | 10 to 50 nM | –
C[C@@]1(c2cccc(Br)c2)CC(c2ccc3c(=O)n(-c4ccc(F)cc4)c(CCCCC(=O)O)nc3c2)=NO1 [Example 235] | ≤ 10 nM | –
CCCC1(c2ccccc2)CC(c2ccc3c(=O)n(-c4ccc(F)cc4)c(CCCCC(=O)O)nc3c2)=NO1 (stereo not shown) [Example 254] | ≤ 10 nM | –
C[C@@]1(c2nc3ccc(Cl)cc3[nH]2)CC(c2ccc3c(=O)n(-c4ccc(Cl)cc4)c(CCCCC(=O)O)nc3c2)=NO1 [Example 222] | ≤ 10 nM | –
CC(c1ccccc1)c1cc(-c2ccc3c(=O)n(-c4ccc(F)cc4)c(CCCCC(=O)O)nc3c2)no1 (stereo not shown) [Example 133] | ≤ 10 nM | –
C[C@@]1([C@@H](O)c2ccccc2)CC(c2ccc3c(=O)n(-c4ccccc4)c(CCCCC(=O)O)nc3c2)=NO1 [Example 26i] | 10 to 50 nM | –
N#Cc1ccccc1C1CC(c2ccc3c(=O)n(-c4ccc(F)cc4)c(CCCCC(=O)O)nc3c2)=NO1 (stereo not shown) [Example 251] | ≤ 10 nM | –
C[C@@]1(c2nc3ccccc3s2)CC(c2ccc3c(=O)n(-c4ccc(F)cc4)c(CCCCC(=O)O)nc3c2)=NO1 [Example 180] | – | ≤ 10
C[C@H]1ON=C(c2ccc3c(=O)n(-c4ccc(F)cc4)c(CCCCC(=O)O)nc3c2)[C@H]1c1ccccc1 [Example 287] | ≤ 10 nM | –
O=C(O)CCCCc1nc2cc(-c3cc(C(=O)C4CC4)on3)ccc2c(=O)n1-c1ccc(F)cc1 [Example 5Q] | 10 to 50 nM | –

SMILES | Ki (read-out: Ki) | Ki (Ki) [nM]
O=C(O)CCCCc1nc2cc(-c3cc(CS(=O)(=O)c4ccccn4)on3)ccc2c(=O)n1-c1ccc(F)cc1 [Example 39I] | 10 to 50 nM | –
C[C@]1([C@H](O)c2ccc(F)cc2)CC(c2ccc3c(=O)n(-c4ccc(F)cc4)c(CCCCC(=O)O)nc3c2)=NO1 [Example 288] | 10 to 50 nM | –
CC1(c2ccccc2)CC(c2ccc3c(=O)n(-c4ccc(F)cc4)c(CCCCC(=O)O)nc3c2)=NO1 (stereo not shown) [Example 15F] | – | ≤ 10
CC1(c2nc3cc(F)c(F)cc3[nH]2)CC(c2ccc3c(=O)n(-c4ccc(Cl)cc4)c(CCCCC(=O)O)nc3c2)=NO1 (stereo not shown) [Example 219] | ≤ 10 nM | –
CC1(c2cc(F)cc(F)c2)CC(c2ccc3c(=O)n(-c4ccc(F)cc4)c(CCCCC(=O)O)nc3c2)=NO1 (stereo not shown) [Example 125] | – | ≤ 10
O=C(O)CCCCc1nc2cc(-n3cc(-c4ccccc4)nn3)ccc2c(=O)n1-c1ccc(F)cc1 [Example 21D] | ≤ 10 nM | –
C[C@]1(Cc2ccccc2)CC(c2ccc3c(=O)n(-c4ccccc4)c(CCCCC(=O)O)nc3c2)=NO1 [Example 26L] | 10 to 50 nM | –
O=C(O)CCCCc1nc2cc(-c3cc(C4CC4)on3)ccc2c(=O)n1-c1ccc(F)cc1 [Example 5J] | 10 to 50 nM | –
C[C@@H](OCc1cccc(F)c1)c1cc(-c2ccc3c(=O)n(-c4ccc(F)cc4)c(CCCCC(=O)O)nc3c2)no1 [Example 273] | ≤ 10 nM | –
O=C(O)CCCCc1nc2cc(-c3cc(CNS(=O)(=O)c4ccc(F)c(F)c4)on3)ccc2c(=O)n1-c1ccc(F)cc1 [Example 24P] | ≤ 10 nM | –
COCC1(c2ccccc2)CC(c2ccc3c(=O)n(-c4ccc(Cl)cc4)c(CCCCC(=O)O)nc3c2)=NO1 (stereo not shown) [Example 15W] | 10 to 50 nM | –
O=C(O)CCCCc1nc2cc(-c3cc(CSc4nc5cc(OC(F)F)ccc5[nH]4)on3)ccc2c(=O)n1-c1ccc(F)cc1 [Example 39, 5-(7-(5-((5-(difluoromethoxy)-1H-benzo[d]imidazol-2-ylthio)methyl)isoxazol-3-yl)-3-(4-fluorophenyl)-4-oxo-3,4-dihydroquinazolin-2-yl)pentanoic acid] | 10 to 50 nM | –
CC1(c2ccccc2)CC(c2ccc3c(=O)n(-c4ccc(F)cc4)c(CCCCC(=O)O)nc3c2)=NO1 (stereo not shown) [Example 15E] | – | 10 to 50
CS(=O)(=O)c1ccc(Cn2cc(-c3ccc4c(=O)n(-c5ccc(F)cc5)c(CCCCC(=O)O)nc4c3)nn2)cc1 [Example 19D] | ≤ 10 nM and 1.2 nM | –
O=C(O)CCCCc1nc2cc(C3=NOC(c4ccccn4)C3)ccc2c(=O)n1-c1ccc(F)cc1 (stereo not shown) [Example 15G] | 10 to 50 nM | –
C[C@@]1(c2nc3cc(Cl)c(F)cc3[nH]2)CC(c2ccc3c(=O)n(-c4ccc(F)cc4)c(CCCCC(=O)O)nc3c2)=NO1 [Example 209] | ≤ 10 nM | –
O=C(O)CCCCc1nc2cc(-c3noc(C4CCCc5ccccc54)n3)ccc2c(=O)n1-c1ccc(F)cc1 (stereo not shown) [Example 245] | 10 to 50 nM | –
O=C(O)CCCCc1nc2cc(-c3cc(C[S+]([O-])c4nc5ccccc5[nH]4)on3)ccc2c(=O)n1-c1ccc(F)cc1 (stereo not shown) [Example 40, 5-(7-(5-((1H-benzo[d]imidazol-2-ylsulfinyl)methyl)isoxazol-3-yl)-3-(4-fluorophenyl)-4-oxo-3,4-dihydroquinazolin-2-yl)pentanoic acid] | 10 to 50 nM | –
C[C@@]1(c2nc3c(F)cc(F)cc3[nH]2)CC(c2ccc3c(=O)n(-c4ccc(F)cc4)c(CCCCC(=O)O)nc3c2)=NO1 [Example 213] | ≤ 10 nM | –
C[C@]1(c2nc3ccc(Cl)cc3o2)CC(c2ccc3c(=O)n(-c4ccc(F)cc4)c(CCCCC(=O)O)nc3c2)=NO1 [Example 172] | ≤ 10 nM | –
CC1(c2nc3ccc(Cl)cc3o2)CC(c2ccc3c(=O)n(-c4ccc(F)cc4)c(CCCCC(=O)O)nc3c2)=NO1 (stereo not shown) [Example 158] | ≤ 10 nM | –
